From ChEMBL document CHEMBL3763023, “Amido/ureidosubstituted benzenesulfonamides-isatin conjugates as low nanomolar/subnanomolar inhibitors of the tumor-associated carbonic anhydrase isoform XII” (Eur J Med Chem, 2016)
pKi: −log10 of the molar value.

molecular target: Carbonic anhydrase 9 (Homo sapiens, UniProt Q16790); test: Inhibition of recombinant human carbonic anhydrase 9 incubated for 15 mins prior to testing by stopped flow carbon dioxide hydrase assay

| pKi | Compound |
| --- | --- |
| 6.71 | NS(=O)(=O)c1ccc(NC(=O)c2ccc(/N=C3\C(=O)Nc4ccc(Cl)cc43)cc2)cc1 |
| 6.66 | NS(=O)(=O)c1ccc(NC(=O)Nc2ccc(/N=C3\C(=O)Nc4ccccc43)cc2)cc1 |
| 7.83 | NS(=O)(=O)c1ccc(NC(=O)Nc2ccc(/N=C3\C(=O)Nc4ccc([N+](=O)[O-])cc43)cc2)cc1 |
| 6.62 | NS(=O)(=O)c1ccc(NC(=O)Nc2ccc(/N=C3\C(=O)Nc4ccc(Cl)cc43)cc2)cc1 |
| 6.63 | NS(=O)(=O)c1ccc(NC(=O)Nc2ccc(/N=C3\C(=O)Nc4ccc(F)cc43)cc2)cc1 |
| 7.78 | Cc1ccc2c(c1)/C(=N/c1ccc(NC(=O)Nc3ccc(S(N)(=O)=O)cc3)cc1)C(=O)N2 |
| 8.30 | NS(=O)(=O)c1ccc(/N=C2\C(=O)Nc3ccc([N+](=O)[O-])cc32)cc1 |
| 6.72 | NS(=O)(=O)c1ccc(NC(=O)Nc2ccc(/N=C3\C(=O)Nc4ccc(Br)cc43)cc2)cc1 |
| 6.68 | NS(=O)(=O)c1ccc(NC(=O)c2ccc(/N=C3\C(=O)Nc4ccc(Br)cc43)cc2)cc1 |
| 6.80 | Nc1ccc(C(=O)Nc2ccc(S(N)(=O)=O)cc2)cc1 |
| 6.62 | NS(=O)(=O)c1ccc(NC(=O)c2ccc(/N=C3\C(=O)Nc4ccccc43)cc2)cc1 |

molecular target: Carbonic anhydrase 2 (Homo sapiens, UniProt P00918); test: Inhibition of recombinant human carbonic anhydrase 2 incubated for 15 mins prior to testing by stopped flow carbon dioxide hydrase assay

| pKi | Compound |
| --- | --- |
| < 5.00 | NS(=O)(=O)c1ccc(NC(=O)Nc2ccc(/N=C3\C(=O)Nc4ccc(Br)cc43)cc2)cc1 |
